Measured values: patent US11925629B2, “Heterocyclic inhibitors of ERK1 and ERK2 and their use in the treatment of cancer” (Asana Biosciences, LLC, priority 2015, dated 2024)
pIC50: −log10 of the molar value. Where two headings read alike, the source gives them in different places.

Key:
Type in all cases: cell-based, human
[1] = system: HCT116 (colorectal carcinoma, K Ras G13D) cells; assay: Cell proliferation (Alamar Blue) assay, HCT116; details: Homo sapiens, HCT-116, HCT116 cells
Outline: (§1)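 5000 cells/well, 16-24 h attach; cpd 0.0005-10 uM (3-fold dilns) x 72 h, 37° C./5% CO2; Alamar Blue 1× 1-3 h; fluor 540/590 nm; IC50, variable-slope sigmoid.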

[2] = system: phosphorylation of RSK1(S380) (the downstream target of ERK1/2); assay: Phospho-RSK1(S380) ELISA assay in HT-29 cells; details: Homo sapiens, HT-29, HT29 cells, read-out: Mechanistic Cell Assay RSK1 Phos HT29 IC50
Outline: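 HT-29 colorectal carcinoma cells (B-RafV600E), plated overnight at 37° C./5% CO2, were treated with compound dilutions for 2 h. Lysates were analysed by phospho-RSK1(Ser380) sandwich ELISA with absorbance at 450 nm. IC50 came from a sigmoidal variable-slope dose-response fit.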

[3] = system: HT-29 (colorectal carcinoma, B-RafV600E) cells; assay: Cell proliferation (Alamar Blue) assay, HT-29; details: Homo sapiens, HT-29, HT29 cells
Outline: as §1

| pIC50 [1] | pIC50 ([2]; phospho-RSK1(S380)) | pIC50 [3] | pIC50 [2] | Structure (SMILES) |
| --- | --- | --- | --- | --- |
| < 5.60 | 5.60 to 6.30 | < 5.60 | – | Cc1cnc(NC(C)c2ccccc2)nc1-n1ccc(C(=O)NC(CO)c2ccccc2)c1 (stereo not drawn) [Example 117, N-(2-hydroxy-1-phenyl-ethyl)-1-(5-methyl-2-((1-phenylethyl)amino)pyrimidin-4-yl)-1H-pyrrole-3-carboxamide] |
| < 5.60 | 6.60 to 7.00 | 5.60 to 6.30 | – | Cc1cnc(NC2CCOCC2)nc1-n1cnc(C(=O)NCc2nccs2)c1 [Example 281, 1-(5-methyl-2-((tetrahydro-2H-pyran-4-yl)amino)pyrimidin-4-yl)-N-(thiazol-2-ylmethyl)-1H-imidazole-4-carboxamide] |
| < 5.60 | 5.60 to 6.30 | 5.60 to 6.30 | – | Cc1cnc(Nc2ccc3c(c2)OCO3)nc1-n1ccc(C(=O)NC(CO)c2cc(Cl)cc(Cl)c2)c1 (stereo not drawn) [Example 58, 1-(2-(benzo[d][1,3]dioxol-5-ylamino)-5-methyl-pyrimidin-4-yl)-N-(1-(3,5-dichloro-phenyl)-2-hydroxy-ethyl)-1H-pyrrole-3-carboxamide] |
| ≥ 7.00 | ≥ 7.00 | ≥ 7.00 | – | Cc1cnc(NC2CCOCC2)nc1-n1cnc(C(=O)NC(CN)c2cccc(Cl)c2)c1 (racemic) [Compound 225, N-(2-Amino-1-(3-chlorophenyl)ethyl)-1-(5-methyl-2-((tetrahydro-2H-pyran-4-yl)amino)pyrimidin-4-yl)-1H-imidazole-4-carboxamide] |
| < 5.60 | 6.30 to 6.60 | 5.60 to 6.30 | – | O=C(NC(CO)c1ccccc1)c1ccn(-c2ccnc(Nc3ccc4c(c3)OCO4)c2)c1 (stereo not drawn) [Example 76, 1-(2-(benzo[d][1,3]dioxol-5-ylamino)pyridin-4-yl)-N-(2-hydroxy-1-phenylethyl)-1H-pyrrole-3-carboxamide] |
| < 5.60 | 5.60 to 6.30 | < 5.60 | – | Cc1cn(-c2ccnc(Nc3ccccc3)c2)cc1C(=O)N[C@H](CO)c1cccc(Cl)c1 [Example 183, (S)-N-(1-(3-chlorophenyl)-2-hydroxyethyl)-4-methyl-1-(2-(phenylamino)pyridin-4-yl)-1H-pyrrole-3-carboxamide] |
| 5.60 to 6.30 | – | 5.60 to 6.30 | ≥ 7.00 | Cc1cnc(N[C@H]2CCOC2)nc1-n1cnc(C(=O)NCc2cccc(Cl)c2C)c1 [Example 331, (S)-N-(3-chloro-2-methylbenzyl)-1-(5-methyl-2-((tetrahydrofuran-3-yl)amino)pyrimidin-4-yl)-1H-imidazole-4-carboxamide] |
| 5.60 to 6.30 | 5.60 to 6.30 | 5.60 to 6.30 | – | Cc1cnc(Nc2ccc(F)cc2)cc1-n1ccc(C(=O)NC(CN)c2cccc(Cl)c2)c1 (stereo not drawn) [Cmpd 159, N-(2-amino-1-(3-chloro-phenyl)ethyl)-1-(2-((4-fluoro-phenyl)amino)-5-methyl-pyridin-4-yl)-1H-pyrrole-3-carboxamide] |
| 6.30 to 6.60 | – | < 5.60 | 5.60 to 6.30 | Cc1cnc(NC2CCOCC2)nc1-n1cnc(C(=O)N[C@H](CNC2CCOCC2)c2cccc(Cl)c2)c1 [Example 308, (S)-N-(1-(3-chlorophenyl)-2-((tetrahydro-2H-pyran-4-yl)amino)ethyl)-1-(5-methyl-2-((tetrahydro-2H-pyran-4-yl)amino)pyrimidin-4-yl)-1H-imidazole-4-carboxamide] |
| < 5.60 | 5.60 to 6.30 | 5.60 to 6.30 | – | NCC(NC(=O)c1ccn(-c2ccnc(Nc3ccc(F)cc3)c2)c1)c1ccccc1 (stereo not drawn) [Example 206, N-(2-amino-1-phenylethyl)-1-(2-((4-fluorophenyl)amino)pyridin-4-yl)-1H-pyrrole-3-carboxamide] |
| < 5.60 | 5.60 to 6.30 | 6.30 to 6.60 | – | Cc1cccc([C@@H](CO)NC(=O)c2ccn(-c3nc(N[C@H]4CCOC4)ncc3C)c2)n1 [Example 207, N-((S)-2-hydroxy-1-(6-methylpyridin-2-yl)ethyl)-1-(5-methyl-2-(((S)-tetrahydrofuran-3-yl)amino)pyrimidin-4-yl)-1H-pyrrole-3-carboxamide] |
| < 5.60 | 5.60 to 6.30 | 5.60 to 6.30 | – | Cc1cnc(N[C@H]2CCOC2)nc1-n1ccc(C(=O)N(C)C(CO)c2cccc(Cl)c2)c1 (stereo partly drawn) [Example 212, N-(1-(3-chlorophenyl)-2-hydroxyethyl)-N-methyl-1-(5-methyl-2-(((S)-tetrahydrofuran-3-yl)amino)pyrimidin-4-yl)-1H-pyrrole-3-carboxamide] |
| 6.30 to 6.60 | 6.30 to 6.60 | 6.60 to 7.00 | – | Cc1cnc(Nc2ccc(F)c(N3CCNCC3)c2)nc1-n1ccc(C(=O)NC(CO)c2cccc(Cl)c2)c1 (stereo not drawn) [Example 213, N-(1-(3-chlorophenyl)-2-hydroxyethyl)-1-(2-((4-fluoro-3-(piperazin-1-yl)phenyl)amino)-5-methylpyrimidin-4-yl)-1H-pyrrole-3-carboxamide] |
| ≥ 7.00 | 6.60 to 7.00 | ≥ 7.00 | – | Cc1cnc(N[C@H]2CCOC2)nc1-n1cnc(C(=O)NCc2cccc(Cl)c2CO)c1 [Example 270] |
| 6.30 to 6.60 | 6.60 to 7.00 | ≥ 7.00 | – | Cc1cnc(Nc2ccc(F)c(N3CCOCC3)c2)nc1-n1ccc(C(=O)NC(CO)c2cccc(Cl)c2)c1 (stereo not drawn) [Example 175, N-(1-(3-chlorophenyl)-2-hydroxyethyl)-1-(2-((4-fluoro-3-morpholinophenyl)amino)-5-methylpyrimidin-4-yl)-1H-pyrrole-3-carboxamide] |
| < 5.60 | ≥ 7.00 | 5.60 to 6.30 | – | O=C(N[C@H](CO)c1cccc(Cl)c1)c1cn(-c2ccnc(Nc3ccccc3)c2)cn1 [Example 72, (S)-N-(1-(3-chlorophenyl)-2-hydroxy-ethyl)-1-(2-(phenylamino)pyridin-4-yl)-1H-imidazole-4-carboxamide] |
| 5.60 to 6.30 | 6.60 to 7.00 | 6.30 to 6.60 | – | Cc1cnc(NC2CCOCC2)nc1-n1cnc(C(=O)N[C@@H](CN)c2cc(F)cc(Cl)c2)c1 [Example 276, (R)-N-(2-amino-1-(3-chloro-5-fluorophenyl)ethyl)-1-(5-methyl-2-((tetrahydro-2H-pyran-4-yl)amino)pyrimidin-4-yl)-1H-imidazole-4-carboxamide] |
| 5.60 to 6.30 | 6.60 to 7.00 | 6.30 to 6.60 | – | Cc1cnc(Nc2ccc(F)cc2)nc1-n1cnc(C(=O)NC(CO)c2cccc(Cl)c2)c1 (stereo not drawn) [Example 155, N-(1-(3-chlorophenyl)-2-hydroxy-ethyl)-1-(2-((4-fluoro-phenyl)amino)-5-methyl-pyrimidin-4-yl)-1H-imidazole-4-carboxamide] |
| 6.30 to 6.60 | 5.60 to 6.30 | 5.60 to 6.30 | – | COc1ccc(Nc2ncc(C)c(-n3ccc(C(=O)NC(CO)c4cccc(Cl)c4)c3)n2)cc1OCCCN(C)C (stereo not drawn) [Example 184, N-(1-(3-chlorophenyl)-2-hydroxyethyl)-1-(2-((3-(3-(dimethylamino)propoxy)-4-methoxyphenyl)amino)-5-methylpyrimidin-4-yl)-1H-pyrrole-3-carboxamide] |
| 6.60 to 7.00 | 6.60 to 7.00 | 6.30 to 6.60 | – | Cc1cnc(Nc2ccc3c(c2)CCO3)nc1-n1ccc(C(=O)NC(CO)c2cccc(Cl)c2)c1 (stereo not drawn) [Example 137, N-(1-(3-chloro-phenyl)-2-hydroxy-ethyl)-1-(2-((2,3-dihydro-benzofuran-5-yl)-mino)-5-methyl-pyrimidin-4-yl)-1H-pyrrole-3-carboxamide] |
